Structures are written as SMILES. Where only a bound is given, the exact number is not on record here.

One test concerns HCV genotype 1a replicon. Description: HCV genotype 1a replicon assay (NS3 protease activity readout). Conditions: HCV genotype 1a replicon. The class given is cell-based, hepatitis C virus. Put shortly: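 Genotype 1a subgenomic replicon cells (APC89, Huh7.5) were treated with compound dose-responses in G418-free medium, 0.5% DMSO final, for 48 or 72 hours at 37° C. Lysate NS3/4a protease activity measured with 15 μM FRET substrate, 20 min at 37° C (ex 340/em 509 nm); EC50 by 4-parameter fit.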
Turning to `COC(=O)N[C@H](C(=O)N1C[C@@H](C)C[C@H]1c1nc(-c2ccc(-c3cc(Cl)c(NC(=O)c4ccc(N5CCN(C(=O)CC6CC6)C[C@H]5C)nc4)cc3OC(F)(F)F)cc2)c[nH]1)C(C)C` [Example 1-98], the “Genotype 1a” value is “C (C represents pEC50 between and 9 and about 10, (EC50 between 1 nM and 0.1 nM))”.
Take `COC(=O)N[C@H](C(=O)N1C[C@@H](C)C[C@H]1c1nc(-c2ccc(-c3cc(F)c(NC(=O)c4ccc(N5CCN(C(=O)c6c[nH]cn6)C[C@H]5C)nc4)cc3C(F)(F)F)cc2)c[nH]1)C(C)C` [Example 1-29]: the “Genotype 1a” value is recorded as “D (D represents pEC50>10 (EC50<0.1 nM))”.
In the case of `COC(=O)N[C@H](C(=O)N1C[C@@H](C)C[C@H]1c1nc(-c2ccc(-c3cc(Cl)c(NC(=O)c4ccc(N5CCN(C(=O)[C@H]6CCCN6C(=O)C(C)(C)C)C[C@H]5C)nc4)cc3OC(F)(F)F)cc2)c[nH]1)C(C)C` [Example 1-50], the “Genotype 1a” value is “D (D represents pEC50>10 (EC50<0.1 nM))”.
With `COC(=O)NC(C(=O)N1CC(OC)CC1c1nc(-c2ccc(-c3ccc(NC(=O)c4ccc(N5CCN(C(=O)C(C)(C)C)CC5C)nc4)cc3OC(F)(F)F)cc2)c[nH]1)C(C)OC` (stereo not drawn) [Example 16-11], the “Genotype 1a” value is listed as “D (D represents pEC50>10 (EC50<0.1 nM))”.
For `COC(=O)N[C@H](C(=O)N1C[C@@H](C)C[C@H]1c1nc(-c2ccc(-c3cc(Cl)c(NC(=O)c4ccc(N5CCN(C(=O)NN(C)C)C[C@H]5C)nc4)cc3OC(F)(F)F)cc2)c[nH]1)C(C)C` [Example 1-94], the “Genotype 1a” value is reported as “D (D represents pEC50>10 (EC50<0.1 nM))”.
For `COC(=O)N[C@H](C(=O)N1C[C@@H](C)C[C@H]1c1nc(-c2ccc(-c3ccc(NC(=O)c4ccc(N5CCN(C(=O)C6CC6)C[C@H]5C)nc4)cc3C(F)(F)F)cc2)c[nH]1)C(C)C` [Example 1-65], the “Genotype 1a” value was “C (C represents pEC50 between and 9 and about 10, (EC50 between 1 nM and 0.1 nM))”.
As for `COC(=O)NC(C(=O)N1CC(C)CC1c1nc(-c2ccc(-c3cc(Cl)c(NC(=O)c4ccc(N5CCN(C(=O)C6CC6(F)Cl)CC5C)nc4)cc3OC(F)(F)F)cc2)c[nH]1)C(C)C` (mixture of isomers) [Example 1-59], the “Genotype 1a” value is given as “D (D represents pEC50>10 (EC50<0.1 nM))”.
On the same count and under the same terms, under `COC(=O)NC(C(=O)N1CC(OC)CC1c1nc(-c2ccc(-c3ccc(NC(=O)c4ccc(N5CCN(C(=O)C(C)(C)CO)CC5C)nc4)cc3OC(F)(F)F)cc2)c[nH]1)C(C)(C)O` (stereo not drawn) [Example 16-17] stands “D (D represents pEC50>10 (EC50<0.1 nM))”; under `COC(=O)N[C@H](C(=O)N1C[C@@H](C)C[C@H]1c1nc(-c2ccc(-c3ccc(NC(=O)c4ccc(N5CCN(C(=O)N(C)C)C[C@H]5C)nc4)cc3C(F)(F)F)cc2)c[nH]1)C(C)C` [Example 1-64], “C (C represents pEC50 between and 9 and about 10, (EC50 between 1 nM and 0.1 nM))”; under `COC(=O)N[C@H](C(=O)N1C[C@@H](C)C[C@H]1c1nc(-c2ccc(-c3cc(F)c(NC(=O)c4ccc(N5CCN(C(=O)C6(C)CC6)C[C@H]5C)nc4)cc3OC(F)(F)F)cc2)c[nH]1)C(C)C` [Example 1-79], “C (C represents pEC50 between and 9 and about 10, (EC50 between 1 nM and 0.1 nM))”.
As to `COC(=O)N[C@H](C(=O)N1C[C@@H](C)C[C@H]1c1nc(-c2ccc(-c3cc(F)c(C(=O)Nc4ccc(N5CCN(C(=O)[C@H]6CC6(C)C)C[C@H]5C)nc4)cc3OC(F)(F)F)cc2)c[nH]1)C(C)C` [Example 4-43], the “Genotype 1a” value was “C (C represents pEC50 between and 9 and about 10, (EC50 between 1 nM and 0.1 nM))”.
Same read-out and setting: as for `CNC(=O)N1CCN(c2ccc(C(=O)Nc3cc(OC(F)(F)F)c(-c4ccc(-c5c[nH]c([C@@H]6C[C@H](OC)CN6C(=O)[C@@H](NC(=O)OC)C6CCOCC6)n5)cc4)cc3Cl)cn2)[C@H](C)C1` [Example 28-13], the entry is “D (D represents pEC50>10 (EC50<0.1 nM))”.
Same read-out and setting: as for `COC(=O)N[C@H](C(=O)N1C[C@@H](C)C[C@H]1c1nc(-c2ccc(-c3ccc(C(=O)Nc4ccc(N5CCN(C(=O)[C@]6(C)CCCN6C(=O)[C@@H](NC(=O)OC)C(C)C)C[C@H]5C)nc4)cc3OC(F)(F)F)cc2)c[nH]1)C(C)C` [Example 4-3], the entry is “D (D represents pEC50>10 (EC50<0.1 nM))”.
For the compound `COC(=O)N[C@H](C(=O)N1C[C@@H](C)C[C@H]1c1nc(-c2ccc(-c3cc(Cl)c(C(=O)Nc4ccc(N5CCN(C(=O)C(C)(C)C)C[C@@H]5C)nc4)cc3OC(F)(F)F)cc2)c[nH]1)C1CCOCC1` [24-2], the “Genotype 1a” value was “C (C represents pEC50 between and 9 and about 10, (EC50 between 1 nM and 0.1 nM))”.
Consider `COC(=O)N[C@H](C(=O)N1C[C@@H](O)C[C@H]1c1nc(-c2ccc(-c3cc(Cl)c(NC(=O)c4ccc(N5CCN(C(=O)C(C)(C)CO)C[C@H]5C)nc4)cc3OC(F)(F)F)cc2)c[nH]1)C1CCOCC1` [Example 26-11], for which the “Genotype 1a” value was “A (A represents a pEC50 value between 6 and 8 (EC50 between 1 μM and 10 nM))”.
Still for that read-out and setting: under `COC(=O)N[C@H](C(=O)N1C[C@@H](C)C[C@H]1c1nc(-c2ccc(-c3cc(F)c(NC(=O)c4ccc(N5CCN(C(=O)C6CC67CC7)C[C@H]5C)nc4)cc3OC(F)(F)F)cc2)c[nH]1)C(C)C` (stereo partly drawn) [Example 1-88] stands “D (D represents pEC50>10 (EC50<0.1 nM))”; under `COC[C@H]1C[C@@H](c2nc(-c3ccc(-c4ccc(C(=O)Nc5ccc(N6CCN(C(=O)C(C)(C)C)C[C@H]6C)nc5)c(Cl)c4OC(F)(F)F)cc3)c[nH]2)N(C(=O)[C@@H](NC(=O)OC)C2CCOCC2)C1` [Example 25-6], “C (C represents pEC50 between and 9 and about 10, (EC50 between 1 nM and 0.1 nM))”.
For the compound `COC(=O)N[C@H](C(=O)N1C[C@@H](C)C[C@H]1c1nc(-c2ccc(-c3ccc(C(=O)Nc4ccc(N5C[C@H](C)N(C(=O)C(C)(C)C)C[C@H]5C)nc4)cc3OC(F)(F)F)cc2)c(Cl)[nH]1)C(C)C` [Example 4-26], the “Genotype 1a” value was “D (D represents pEC50>10 (EC50<0.1 nM))”.

Still in this test, the particulars now being: Hepatitis C virus, read-out: Genotype 1a, HCV genotype 1a replicon.
Turning to `COC(=O)N[C@H](C(=O)N1C[C@@H](C)C[C@H]1c1nc(-c2ccc(-c3cc(Cl)c(NC(=O)c4ccc(N5CCN(C(=O)C(C)(C)N(C)C)C[C@H]5C)nc4)cc3OC(F)(F)F)cc2)c[nH]1)C(C)C` [Example 12-20], the EC50 was below 0.1 nM.
The same measure, in the same setting: as for `COC(=O)N[C@H](C(=O)N1C[C@@H](N)C[C@H]1c1nc(-c2ccc(-c3ccc(C(=O)Nc4ccc(N5CCN(C(=O)C6CC6(C)C)C[C@H]5C)nc4)cc3)cc2)c[nH]1)C(C)C` (stereo partly drawn) [Example 6-4], the figure is 10 to 1000 nM; as for `COC(=O)N[C@H](C(=O)N1CC(C)(C)C[C@H]1c1nc(-c2ccc(-c3ccc(C(=O)Nc4ccc(N5CCN(C(=O)[C@]6(C)CCCN6C(=O)[C@@H](NC(=O)OC)C(C)C)C[C@H]5C)nc4)cc3OC(F)(F)F)cc2)c[nH]1)C(C)C` [Example 6-6], 0.1 to 1 nM.
Same read-out and setting: as for `COC(=O)N[C@H](C(=O)N1C[C@@H](C)C[C@H]1c1nc(-c2ccc(-c3cc(Cl)c(NC(=O)c4ccc(N5CCN(C(=O)c6ccccn6)C[C@H]5C)nc4)cc3OC(F)(F)F)cc2)c[nH]1)C(C)C` [Example 12-7], the figure is 0.1 to 1 nM; as for `COC(=O)N[C@H](C(=O)N1C[C@@H](C)C[C@H]1c1nc(-c2ccc(-c3cc(Cl)c(NC(=O)c4ccc(N5CCN(C(=O)C(C)(C)CNC(C)=O)C[C@H]5C)nc4)cc3OC(F)(F)F)cc2)c[nH]1)C(C)C` [Example 12-42], below 0.1 nM.
On the same count and under the same terms, under `COC(=O)N[C@H](C(=O)N1C[C@@H](C)C[C@H]1c1nc(-c2ccc(-c3cc(Cl)c(NC(=O)c4ccc(N5CCN(C(=O)C(C)(C)CO)C[C@H]5C)nc4)cc3OC(F)(F)F)cc2)c(CO)[nH]1)C(C)C` [Example 5-13] stands below 0.1 nM; under `COC(=O)N[C@@H](C(=O)N1C[C@@H](C)C[C@H]1c1nc(-c2ccc(-c3cc(Cl)c(NC(=O)c4ccc(N5CCN(C(=O)C(C)(C)C)C[C@H]5C)nc4)cc3OC(F)(F)F)cc2)c[nH]1)C1C[C@@H](C)O[C@@H](C)C1` (stereo partly drawn) [Example 13-43], 1 to 10 nM.
`CCO[C@H]1C[C@@H](c2nc(-c3ccc(-c4cc(Cl)c(C(=O)Nc5ccc(N6CCN(C(=O)C(C)(C)C)C[C@H]6C)nc5)cc4OC(F)(F)F)cc3)c[nH]2)N(C(=O)[C@@H](NC(=O)OC)C(C)C)C1` [Example 6-27]: the EC50 fell in the range of 0.1 to 1 nM.
`COC(=O)N[C@H](C(=O)N1[C@H](c2nc(-c3ccc(-c4ccc(C(=O)Nc5ccc(N6CCN(C(=O)[C@]7(C)C[C@@H](O)CN7C(=O)OC(C)(C)C)C[C@H]6C)nc5)cc4OC(F)(F)F)cc3)c[nH]2)C[C@@H]2CCCC[C@@H]21)C(C)C` [Example 6-16]: the EC50 was 1 to 10 nM.
Same read-out and setting: under `COC(=O)N[C@H](C(=O)N1C[C@@H](C)C[C@H]1c1nc(-c2ccc(-c3cc(Cl)c(NC(=O)c4ccc(N5CCN(C(=O)C(C)(C)CNC(=O)C(C)(C)C)C[C@H]5C)nc4)cc3OC(F)(F)F)cc2)c[nH]1)C(C)C` [Example 12-38] stands 0.1 to 1 nM.
As for `COC(=O)NC(C(=O)N1C[C@@H](C)C[C@H]1c1nc(-c2ccc(-c3cc(Cl)c(NC(=O)c4ccc(N5CCN(C(=O)C(C)(C)C)C[C@H]5C)nc4)cc3OC(F)(F)F)cc2)c[nH]1)C1CCS(=O)(=O)CC1` (stereo partly drawn) [Example 13-36], the EC50 was 1 to 10 nM.
On the same count and under the same terms, as for `COC(=O)N(C)[C@H](C(=O)N1C[C@@H](C)C[C@H]1c1nc(-c2ccc(-c3cc(Cl)c(NC(=O)c4ccc(N5CCN(C(=O)C(C)(C)CO)C[C@H]5C)nc4)cc3OC(F)(F)F)cc2)c[nH]1)C(C)C` [Example 13-45], the figure is 0.1 to 1 nM.
Still for that read-out and setting: as for `CCOCCC(C)(C)C(=O)N1CCN(c2ccc(C(=O)Nc3cc(OC(F)(F)F)c(-c4ccc(-c5c[nH]c([C@@H]6C[C@H](C)CN6C(=O)[C@@H](NC(=O)OC)C(C)C)n5)cc4)cc3Cl)cn2)[C@H](C)C1` [Example 12-3], the figure is below 0.1 nM.
Still for that read-out and setting: as for `COC[C@H]1C[C@@H](c2nc(-c3ccc(-c4cc(Cl)c(NC(=O)c5ccc(N6CCN(C(=O)C(C)(C)C)C[C@H]6C)nc5)cc4OC(F)(F)F)cc3)c[nH]2)N(C(=O)[C@@H](NC(=O)OC)C2CCOCC2)C1` [Example 5-15], the figure is below 0.1 nM; as for `COC(=O)N[C@H](C(=O)N1C[C@@H](C)C[C@H]1c1nc(-c2ccc(-c3cc(Cl)c(NC(=O)c4ccc(N5CCN(C(=O)C(C)(C)OC)C[C@H]5C)nc4)cc3OC(F)(F)F)cc2)c[nH]1)C(C)C` [Example 12-43], below 0.1 nM.
